Key:
Type in all cases: binding, mouse
[1] = system: monoclonal antibody Sol-8; experiment: competitive inhibition ELISA (c-ELISA), monoclonal antibody Sol-8; conditions: Sol-8 (IgG2a); ± one standard deviation
Protocol: (§1) Five, 6 month old BALB/c mice were injected with 50 μl of the solanidine-KLH conjugate mixed 1:1 with Ribi adjuvant (Ribi Immunochem Research Inc., Hamilton, Mont.). The mice received half the dose intraperitoneally and half intramuscularly every other week for a total of three injections. One month later, and 4 days prior to fusion, a selected mouse was given an intraperitoneal injection of 50 μl of solanidine-KLHconjugate in sterile saline. The spleen was removed and the splenocytes fused with SP2/O myeloma cells as described by Stanker et al. (1986, J. Immunol., 136:4174-4180), the contents of which are incorporated by reference herein. The fused cells were plated over 30 96-well microculture plates previously coated with mouse peritoneal exudate cells (macrophage) and grown under conditions described by Elissalde et al. (1993, J. Agric. Food Chem., 41:2167-2171), the contents of which are also incorporated by reference herein.
(§2) db-ELISA. A modification of a direct-binding ELISA described by Stanker et al. (1993, J. Agric. Food Chem., 41:1332-1336), the contents of which are incorporated by reference herein, was used to screen the culture fluids from the growing hybridomas for antibodies to solanidine. Microtiter plates (Nunc Maxisorb, Roskilde, Denmark; or Costar high binding plates, Costar Corp., Wilmington, Mass.) were coated with SOL-BSA by addition of 100 μl/well of a 1 μg/ml solution of SOL-BSA in distilled water. The SOL-BSA was incubated in uncovered plates at 37° C. for 18 hr to evaporate the liquid and allow the SOL-BSA to coat the bottom of the microtiter wells. The "coated" plates were then stored in sealed plastic bags at 4° C. and used within 2 weeks. Nonreacted sites on the plates were blocked by adding 400 μl of a 3% solution of nonfat dry milk (NFDM) in assay buffer (0.1M Tris, 0.15M NaCl, 10 mg/ml nonfat dry milk, 0.001% Tween 20, 0.02% sodium azide) and incubating the plates at room temperature for 1 hr. The blocking solution was then discarded and 100 μl of the hybridoma supernatant(s) or anti-solanidine Mab (from ascites fluid) was added, and the plates incubated for 1 hr at 37° C. After incubation, the plates were washed with a solution of 0.05% TWEEN-20 in water, and peroxidase conjugated goat anti-mouse antiserum (Sigma Inc., St. Louis, Mo.), diluted 1:500 in assay buffer, was then added to each well. Following a second 1 hr incubation at 37° C., the plates were washed as described above. Finally, the substrate, 2,2'-azino-bis(ethylbenzthiazole-6-sulfonic acid) (ABTS), was added. Absorbance was measured at 405 nm and the resulting data analyzed by computer using an Excel (Microsoft, Redmond, Wash.) spreadsheet program.
(§3) c-ELISA. The competitive inhibition ELISA for solanidine and other glycoalkaloids was carried out as previously described for other compounds by Stanker et al. (1993, ibid). Briefly, to each well of an antigen (glycoalkaloid or aglycone) coated, non-fat-milk-blocked, microtiter plate prepared as described in the db-ELISA was added 100 μl of assay buffer. Competitors (free solanidine and other glycoalkaloids and aglycones, and four structurally related steroids cholesterol, digitonin, βsitosterol, and stigmasterol, shown in Table 1) dissolved in 100 μl of assay buffer were added to the microassay plate and serially diluted (a 2-fold series). Next, 100 μl of assay buffer containing a predetermined amount of anti-solanidine monoclonal antibody prepared above was added to each well. The amount of anti-alkaloid antibody added was the concentration (dilution from tissue culture supernatant) resulting in approximately 50% of maximum binding or signal in a direct-binding ELISA where no competitor was present. The plates were sealed with plastic wrap, incubated for 1 hr at 37° C., and then processed as described in the db-ELISA to detect bound antibody. […]

[2] = system: monoclonal antibody Sol-54; experiment: competitive inhibition ELISA (c-ELISA), monoclonal antibody Sol-54; conditions: Sol-54 (IgG2a); ± one standard deviation
Protocol: as §1, §2, §3

[3] = system: monoclonal antibody Sol-55; experiment: competitive inhibition ELISA (c-ELISA), monoclonal antibody Sol-55; conditions: Sol-55 (IgG2a); ± one standard deviation
Protocol: as §1, §2, §3

[4] = system: monoclonal antibody Sol-59; experiment: competitive inhibition ELISA (c-ELISA), monoclonal antibody Sol-59; conditions: Sol-59 (IgG2a); ± one standard deviation
Protocol: as §1, §2, §3

[5] = system: monoclonal antibody Sol-67; experiment: competitive inhibition ELISA (c-ELISA), monoclonal antibody Sol-67; conditions: Sol-67 (IgG1); ± one standard deviation
Protocol: as §1, §2, §3

[6] = system: monoclonal antibody Sol-68; experiment: competitive inhibition ELISA (c-ELISA), monoclonal antibody Sol-68; conditions: Sol-68 (IgG1); ± one standard deviation
Protocol: as §1, §2, §3

[7] = system: monoclonal antibody Sol-71; experiment: competitive inhibition ELISA (c-ELISA), monoclonal antibody Sol-71; conditions: Sol-71 (IgG2a); ± one standard deviation
Protocol: as §1, §2, §3

[8] = system: monoclonal antibody Sol-91; experiment: competitive inhibition ELISA (c-ELISA), monoclonal antibody Sol-91; conditions: Sol-91 (IgG2a); ± one standard deviation
Protocol: as §1, §2, §3

[9] = system: monoclonal antibody Sol-106; experiment: competitive inhibition ELISA (c-ELISA), monoclonal antibody Sol-106; conditions: Sol-106 (IgG2a); ± one standard deviation
Protocol: as §1, §2, §3

[10] = system: monoclonal antibody Sol-129; experiment: competitive inhibition ELISA (c-ELISA), monoclonal antibody Sol-129; conditions: Sol-129 (IgG1); ± one standard deviation
Protocol: as §1, §2, §3

[11] = system: eleven monoclonal antibodies; experiment: competitive inhibition ELISA (c-ELISA), all eleven monoclonal antibodies; conditions: in words
Protocol: as §1, §2
c-ELISA. […]

Q: C[C@@H]1CC[C@@]2(OC1)O[C@H]1[C@@H](O)[C@H]3[C@@H]4CC[C@H]5C[C@@H](O[C@@H]6O[C@H](CO)[C@H](O[C@@H]7O[C@H](CO)[C@@H](O)[C@H](O[C@@H]8OC[C@@H](O)[C@H](O)[C@H]8O)[C@H]7O[C@@H]7O[C@H](CO)[C@H](O)[C@H](O[C@@H]8O[C@H](CO)[C@@H](O)[C@H](O)[C@H]8O)[C@H]7O)[C@H](O)[C@H]6O)[C@H](O)C[C@]5(C)[C@H]4CC[C@]3(C)[C@H]1[C@@H]2C [digitonin] was tested. Which IC50 [1] did it give?
A: nc (no competition at 10,000 ppb)

Q: And the IC50 [2]?
A: nc (no competition at 10,000 ppb)

Q: And the IC50 [3]?
A: nc (no competition at 10,000 ppb)

Q: What about the IC50 [4] of the same molecule?
A: nc (no competition at 10,000 ppb)

Q: What about the IC50 [5] of the same molecule?
A: nc (no competition at 10,000 ppb)

Q: What about the IC50 [6] of the same molecule?
A: nc (no competition at 10,000 ppb)

Q: What about the IC50 [7] of the same molecule?
A: nc (no competition at 10,000 ppb)

Q: What about the IC50 [8] of the same molecule?
A: nc (no competition at 10,000 ppb)

Q: What about the IC50 [9] of the same molecule?
A: nc (no competition at 10,000 ppb)

Q: And the IC50 [10]?
A: nc (no competition at 10,000 ppb)

Q: What about the “cross-reaction of the antibodies” value [11] of the same molecule?
A: None of the eleven antibodies cross-reacted

Q: How did the IC50 [1] turn out when CC[C@H](/C=C/[C@@H](C)[C@H]1CC[C@H]2[C@@H]3CC=C4C[C@@H](O)CC[C@]4(C)[C@H]3CC[C@]12C)C(C)C [stigmasterol] was run?
A: nc (no competition at 10,000 ppb)

Q: What about the IC50 [2] of the same molecule?
A: nc (no competition at 10,000 ppb)

Q: And the IC50 [3]?
A: nc (no competition at 10,000 ppb)

Q: What about the IC50 [4] of the same molecule?
A: nc (no competition at 10,000 ppb)

Q: And the IC50 [5]?
A: nc (no competition at 10,000 ppb)

Q: What about the IC50 [6] of the same molecule?
A: nc (no competition at 10,000 ppb)

Q: And the IC50 [7]?
A: nc (no competition at 10,000 ppb)

Q: What about the IC50 [8] of the same molecule?
A: nc (no competition at 10,000 ppb)

Q: And the IC50 [9]?
A: nc (no competition at 10,000 ppb)

Q: And the IC50 [10]?
A: nc (no competition at 10,000 ppb)

Q: And the “cross-reaction of the antibodies” value [11]?
A: None of the eleven antibodies cross-reacted

Q: Which IC50 [1] does the source give for CC[C@H](CC[C@@H](C)[C@H]1CC[C@H]2[C@@H]3CC=C4C[C@@H](O)CC[C@]4(C)[C@H]3CC[C@]12C)C(C)C [β-sitosterol] here?
A: nc (no competition at 10,000 ppb)

Q: And the IC50 [2]?
A: nc (no competition at 10,000 ppb)

Q: What about the IC50 [3] of the same molecule?
A: nc (no competition at 10,000 ppb)

Q: What about the IC50 [4] of the same molecule?
A: nc (no competition at 10,000 ppb)

Q: And the IC50 [5]?
A: nc (no competition at 10,000 ppb)

Q: And the IC50 [6]?
A: nc (no competition at 10,000 ppb)

Q: What about the IC50 [7] of the same molecule?
A: nc (no competition at 10,000 ppb)

Q: What about the IC50 [8] of the same molecule?
A: nc (no competition at 10,000 ppb)

Q: And the IC50 [9]?
A: nc (no competition at 10,000 ppb)

Q: What about the IC50 [10] of the same molecule?
A: nc (no competition at 10,000 ppb)

Q: What about the “cross-reaction of the antibodies” value [11] of the same molecule?
A: None of the eleven antibodies cross-reacted
